Measured values as given in DBAASP.
Converted amounts (≈) assume the structure as drawn.

Legend:
Assay in all cases: ≥ marks a high value that may be exact or a test limit, other limits are often not marked, values filed in µg/mL are converted to µM
Listeria innocua = system: Listeria innocua
Micrococcus luteus A270 = system: Micrococcus luteus A270
Escherichia coli = system: Escherichia coli
[1] = system: Salmonella enterica subsp. enterica serovar Enteritidis
[2] = system: Staphylococcus aureus MW2
[3] = system: Staphylococcus aureus ATCC 29231
[4] = system: Klebsiella pneumoniae WGLW2
[5] = system: Acinetobacter baumannii ATCC 7978
[6] = system: Candida albicans ATCC 10231
[7] = system: Klebsiella aerogenes ATCC 13048
[8] = system: Salmonella enterica subsp. arizonae ATCC 13314
Escherichia coli SBS 363 = system: Escherichia coli SBS 363
Candida albicans MDM8 = system: Candida albicans MDM8
[9] = system: Pseudomonas aeruginosa ATCC 27853

SMILES	MIC (Listeria innocua) [µM]	MIC (Micrococcus luteus A270) [µM]	MIC (Escherichia coli) [µM]	MIC [1] [µM]	MIC [2] [µM]	MIC [3] [µM]	MIC [5] [µM]	further results
CC(C)C[C@H](NC(=O)[C@H](C)NC(=O)[C@H](CC(N)=O)NC(=O)[C@H](C)NC(=O)[C@@H](NC(=O)CNC(=O)[C@H](C)NC(=O)[C@@H](NC(=O)[C@@H](NC(=O)[C@H](CCCCN)NC(=O)[C@H](CCC(N)=O)NC(=O)[C@H](Cc1ccccc1)NC(=O)[C@H](CC(=O)O)NC(=O)[C@H](C)NC(=O)[C@H](CCC(N)=O)NC(=O)[C@H](CC(C)C)NC(=O)[C@@H](NC(=O)[C@@H]1CCCN1C(=O)[C@@H](NC(=O)[C@@H](N)Cc1ccccc1)[C@@H](C)O)C(C)C)C(C)C)C(C)C)C(C)C)C(=O)N[C@@H](C)C(=O)N[C@@H](Cc1cnc[nH]1)C(=O)N[C@@H](CCCN=C(N)N)C(=O)N[C@@H](Cc1ccc(O)cc1)C(=O)N[C@@H](Cc1cnc[nH]1)C(=O)O [FTPVLQADFQKVVAGVANALAHRYH]	≥ 73	≥ 85	73 (≈ 201 µg/mL)	≥ 73				
CC[C@H](C)[C@H](NC(=O)[C@H](Cc1c[nH]c2ccccc12)NC(=O)[C@H](CCCCN)NC(=O)[C@@H](N)CC(C)C)C(=O)NCC(=O)N[C@@H](CCCCN)C(=O)N[C@@H](Cc1c[nH]c2ccccc12)C(=O)N[C@H](C(=O)N[C@@H](Cc1c[nH]c2ccccc12)C(=O)N[C@@H](CCCN=C(N)N)C(=O)N[C@H](C(=O)NCC(=O)O)C(C)C)[C@@H](C)CC [LKWIGKWIWRVG]					≥ 41.5	≥ 83	≥ 83	MIC [4]: ≥ 83 µM
CC[C@H](C)[C@H](NC(=O)[C@H](CCCCN)NC(=O)[C@H](Cc1c[nH]c2ccccc12)NC(=O)[C@@H](N)CC(C)C)C(=O)NCC(=O)N[C@@H](Cc1c[nH]c2ccccc12)C(=O)N[C@@H](CCCCN)C(=O)N[C@H](C(=O)N[C@@H](Cc1c[nH]c2ccccc12)C(=O)N[C@@H](CCCN=C(N)N)C(=O)N[C@H](C(=O)NCC(=O)N[C@@H](Cc1c[nH]c2ccccc12)C(=O)N[C@@H](CC(N)=O)C(=O)N[C@@H](Cc1c[nH]c2ccccc12)C(=O)N[C@@H](CCCN=C(N)N)C(=O)O)C(C)C)[C@@H](C)CC [LWKIGWKIWRVGWNWR]					14.7 (≈ 32 µg/mL)	14.7 (≈ 32 µg/mL)	14.7 (≈ 32 µg/mL)	MIC [6]: 29.3 µM (≈ 64 µg/mL); MIC [7]: ≥ 58.6 µM

Second part, led by results:

MIC (Listeria innocua) [µM]	MIC (Micrococcus luteus A270) [µM]	MIC (Escherichia coli) [µM]	MIC [1] [µM]	SMILES	MIC [2] [µM]	MIC [3] [µM]	MIC [5] [µM]	further results
	0.4 (≈ 0.502 µg/mL)			CC[C@H](C)[C@H](NC(=O)[C@H](CC(C)C)NC(=O)[C@H](CO)NC(=O)[C@H](CC(C)C)NC(=O)[C@H](CC(C)C)NC(=O)[C@@H](N)CO)C(=O)N[C@@H](CCCN=C(N)N)C(=O)N[C@@H](CCCCN)C(=O)N[C@@H](CC(C)C)C(=O)N[C@@H](CC(C)C)C(=O)N[C@H](C(N)=O)[C@@H](C)O [SLLSLIRKLLT]				MIC [8]: ≥ 50 µM; MIC (Escherichia coli SBS 363): 1.6 µM (≈ 2.01 µg/mL); MIC (Candida albicans MDM8): 0.4 µM (≈ 0.502 µg/mL); MIC [9]: 1.6 µM (≈ 2.01 µg/mL)
27 (≈ 73.7 µg/mL)	≥ 54	54 (≈ 147 µg/mL)	27 (≈ 73.7 µg/mL)	CC(C)C[C@H](NC(=O)[C@@H](N)C(C)C)C(=O)N[C@@H](CO)C(=O)N[C@@H](C)C(=O)N[C@@H](C)C(=O)N[C@@H](CC(=O)O)C(=O)N[C@@H](CCCCN)C(=O)NCC(=O)N[C@@H](CC(N)=O)C(=O)N[C@H](C(=O)N[C@@H](CCCCN)C(=O)N[C@@H](C)C(=O)N[C@@H](C)C(=O)N[C@@H](Cc1c[nH]c2ccccc12)C(=O)NCC(=O)N[C@@H](CCCCN)C(=O)N[C@H](C(=O)NCC(=O)NCC(=O)N[C@@H](Cc1cnc[nH]1)C(=O)N[C@@H](C)C(=O)N[C@@H](C)C(=O)N[C@@H](CCC(=O)O)C(=O)N[C@@H](Cc1ccc(O)cc1)C(=O)NCC(=O)N[C@@H](C)C(=O)N[C@@H](CCC(=O)O)C(=O)N[C@@H](C)C(=O)O)C(C)C)C(C)C [VLSAADKGNVKAAWGKVGGHAAEYGAEA]				
